According to patent publication US20240065999A1, “Ophthalmic Formulation Containing a Dopaminergic Prodrug that may be Combined with One or More Agents” (The Board of Trustees of the Leland Stanford Junior …, priority 2020, published 2024):
Values after ≈ are worked out from the molar mass of the structure shown. Where a name gives a salt, the structure may show the parent alone. Read-outs that look alike come from different tables or passages of the source.

Assays:
intravitreal dopamine = conditions: chick eyes with negative lenses, after three days of treatment; cited from earlier work
myopic progression = conditions: ATOM trial, cited from earlier work
[1] = Maximum solubility / achievable concentration of topical solutions; assay type: physicochemical
Description: PBS was used as a vehicle control.

axial elongation [2] = assay: Reduction of axial elongation by levodopa in chicks (Thomson et al.); assay type: in vivo; conditions: Gallus gallus; calculated using a chick vitreous volume of 200 μL; read-out: EC50 as intravitreal concentration
[3] = pig, 24 h, 0.5 %
Description: (§1) To assess the vitreous penetration, dopamine (dopamine hydrochloride; Sigma-Aldrich, St. Louis, Mo., USA), and etilevodopa (BOC Sciences, Shirley, N.Y., USA) were freshly dissolved in phosphate buffered saline solution (PBS, pH 7.4; Aniara, West Chester, Ohio, USA) at the concentration of 0.5%, whereas levodopa (Sigma-Aldrich) was freshly dissolved in distilled water at 0.5%. Thirty microliters of each solution was placed onto the cornea of enucleated porcine eyes (Animal Technologies, Tyler, Tex., USA; at least six porcine eyes were studied for each treatment), which were no more than 30 hours since enucleation and were maintained on ice throughout experimentation. PBS was used as a vehicle control. The vitreous humor sample was collected after 24 hours for quantitative measurement of dopaminergic derivative level using an enzyme-linked immunosorbent assay (ELISA) kit according to the manufacturers' protocol (dopamine ELISA kit; Immuno-Biological Laboratories, Inc., Minneapolis, Minn., USA).

axial elongation [4] = conditions: chick, Thomson et al., cited from earlier work
[5] = In vivo pharmacokinetics after a single topical treatment of etilevodopa 10% in Long Evans rat eyes; conditions: single topical etilevodopa 10%, noncompartmental analysis
Experimental: To assess the short-term pharmacokinetic effect, 5 μL of etilevodopa 10% was instilled onto a rat eye. At one, two, four, eight, and 24 hours, rats were sacrificed (at least three rats were studied at each time point). Serum was obtained by allowing the blood sample to clot at room temperature for 0.5 to 1 hour, followed by centrifuging at 13,000 rpm for 10 minutes (MiniSpin Eppendorf; Thermo Fisher Scientific, Waltham, Mass., USA). Serum was then frozen at −80° C. until tested. Eyes were enucleated and collected for quantitative measurement of dopaminergic derivative levels. Concentrations of dopaminergic derivative in both whole eye and vitreous/retina were measured for pharmacokinetic evaluation. Briefly, tissue samples were incubated with 150 μL lysis buffer (CelLytic MT Cell Lysis Reagent; Sigma-Aldrich) for 0.5 to 1 hour, followed by centrifuge at 13,000 rpm for 10 minutes, and the supernatant was collected. All samples were immediately frozen at −80° C. until tested. The level of dopaminergic derivative was measured in both serum and eye using a dopamine ELISA kit (Immuno-Biological Laboratories, Inc.) according to the manufacturer's instruction.

Long Evans rat eyes = assay: Clinical examination, OCT imaging and ERG after once-daily topical etilevodopa; assay type: in vivo
Experimental: Etilevodopa 10% 5 μL was administered as an eye drop once daily to one eye of each rat for 28 consecutive days, and the contralateral eye received PBS as a control. To assess the tolerability after administering etilevodopa over time, clinical examination was conducted at 14 and 28 days during treatment. To assess retinal structure and function, spectral-domain OCT (Spectralis HRA+OCT instrument; Heidelberg Engineering, Heidelberg, Germany) and full-field ERG (D300; Diagnosys LLC, Lowell, Mass., USA) were also performed at 14 and 28 days. Briefly, rats were first anesthetized with intraperitoneal injection of a mixture of ketamine hydrochloride (75 mg/kg; Hospira, Inc., Lake Forest, Ill., USA) and xylazine (5 mg/kg; Bedford Laboratories, Bedford, Ohio, USA). The corneas were topically anesthetized with tetracaine 0.5% (Alcon Laboratories, Inc. Fort Worth, Tex., USA), and the pupils were dilated with tropicamide 1% (Akorn, Inc., Lake Forest, Ill., USA) and phenylephrine hydrochloride 2.5% (Akorn, Inc.).
For clinical examination, 1% methylcellulose and a plastic coverslip were applied to the cornea to enhance visualization. A Zeiss OPMI MDO S5 Microscope (Prescott's, Inc., Monument, Col., USA) with an Excelis camera (ACCU-SCOPE, Inc., Commack, N.Y., USA) was used to digitally record ocular photos.
For OCT, 1% methylcellulose and a coverslip were placed on the anesthetized rat cornea. A commercially available 78-D double aspheric fundus lens (Volk Optical, Inc., Mentor, Ohio, USA) was mounted in front of the OCT and images were taken with proprietary software (Eye Explorer, version 3.2.1.0; Heidelberg Engineering). A raster scan of 19 equally spaced horizontal B-scans centered on the optic nerve was captured.
For full-field ERG, rats were dark-adapted overnight. A gold wire loop was placed on the cornea of both eyes, a reference electrode was placed subcutaneously on the nose, and a ground electrode was placed in the tail. ERG responses were recorded from both eyes simultaneously. The flash intensity was set at six increasing intensities of 0.0001, 0.001, 0.01, 0.1, 1, and 3 cd·s/m2. ERG recordings were averaged over 10 presentations of a single one-millisecond flash with a 10-second interstimulus interval. The A-wave amplitude was measured from the baseline to trough, while the B-wave was measured from the trough to peak.

rat eyes = assay: Histology and immunohistochemistry (H&E, cleaved caspase-3, TUNEL) of rat eyes; assay type: in vivo, Long Evans rat; conditions: 5 μL etilevodopa 10% once daily, 14 and 28 days
Experimental: To assess for inflammation and apoptosis, 5 μL of etilevodopa 10% was administered as a once-daily eye drop to one eye of each rat, and the contralateral eye received PBS as a control. Rat eyes were enucleated at 14 and 28 days after treatment and fixed in 4% paraformaldehyde (VWR, Visalia, Calif., USA) overnight at 4° C., dehydrated in graded series of sucrose and alcohol, frozen, and cut into 12 μm sections onto glass slides.
For inflammation, frozen sections were first fixed in 10% formalin (Sigma-Aldrich) for 20 minutes and washed in water, followed by staining the nuclei with hematoxylin for three minutes and washing in water again. The slides were then dipped in lithium carbonate (bluing agent) for 45 seconds, washed in water, immersed in 95% ethanol (2-3 dips), and stained with eosin for another three minutes. After dehydrating in 95% ethanol for one minute and then in 100% ethanol for two minutes, the slides were mounted with Cytoseal 60 and imaged using Nikon Eclipse E800 microscope (Nikon Corp., Tokyo, Japan).
For apoptosis, sections were stained with cleaved caspase-3 (Cell Signaling, Beverly, Mass., USA). Briefly, sections were first washed with washing buffer (0.1% Triton X-100 in PBS) three times for five minutes each, blocked with 5% bovine serum albumin (Fraction V; Sigma-Aldrich) in washing buffer for one hour, followed by incubating in primary antibody-cleaved caspase-3 (1:200 in washing buffer) for two hours. After washing three times for five minutes each, sections were incubated in secondary antibody (AlexaFluor 488 donkey anti-rabbit IgG; 1:400; Invitrogen, Waltham, Mass., USA) in washing buffer for one hour, followed by washing another three times and mounting with 4′,6-diamidino-2-phenylindole (DAPI)-containing mounting media (Vectashield; Vector Laboratories, Burlingame, Calif., USA). Slides were imaged using Leica DMi8 microscope (Leica Microsystems Inc., Buffalo Grove, Ill., USA). Terminal deoxynucleotidyl transferase dUTP nick end labeling (TUNEL) assay was also performed to further detect apoptosis using TUNEL label mix kit (Sigma-Aldrich). […]

[6] = Observation of rat behavior during the 28-day study; assay type: in vivo; conditions: once-daily topical etilevodopa
[7] = Ex vivo ocular penetration of dopamine and dopaminergic derivatives in enucleated porcine eyes (dopamine ELISA); conditions: topical
Description: as §1

[8] = ibopamine for hypotony, before 24 weeks; cited from earlier work
[9] = 1% atropine nightly in one eye over two years

Compound: insulin (Insulin B chain AANQHLCGSHLVEALYLVCGERGFFYSPKA; Insulin A chain GIVEQCCHNTCSLYQLENYCN; UniProt P67970 25-54; P67970 87-107, looked up) [insulin injected into chick eyes treated with negative lenses]
- increase in intravitreal dopamine (intravitreal dopamine): 2 fold

Compound: CN1[C@@H]2CC[C@H]1C[C@@H](OC(=O)C(CO)c1ccccc1)C2 (some centres unmarked) [atropine]
- diopter difference (myopic progression; [9]): ~+0.8 diopter
- reduction of myopic progression (myopic progression; [9]): 77%
- axial length (myopic progression; 1% atropine nightly over two years): remained unchanged

Compound: N[C@@H](Cc1ccc(O)c(O)c1)C(=O)O [levodopa]
- maximum concentration achievable ([1]; distilled water): 0.5%
- EC50 (axial elongation [2]): ~7.9 ng/mL (≈ 0.0401 µM)
- concentration of dopaminergic derivatives in the vitreous [3]: 11.9 ng/mL
- EC50 (axial elongation [4]; intravitreal administration, 10 μL dose, read-out: EC50 for a reduction of axial elongation): 800 nM
- EC50 for a reduction of axial elongation (axial elongation [4]; topical levodopa): 0.05%

Compound: NCCc1ccc(O)c(O)c1 [dopamine, dopamine hydrochloride]
- concentration of dopaminergic derivatives in the vitreous [3]: 375.1 ng/mL
- fold higher intravitreal concentration as compared to etilevodopa 10% [3]: 10 fold

Compound: CCOC(=O)[C@@H](N)Cc1ccc(O)c(O)c1 [etilevodopa]
- AUC0→∞ ([5]; blood): 11.2 ng·h/mL
- AUC0→∞ ([5]; retina/vitreous): 818 ng·h/mL
- AUC0→∞ ([5]; whole eye): 4300 ng·h/mL
- direct toxicity (Long Evans rat eyes; four-week application as a topical eye drop): no evidence of direct toxicity
- ERG A-wave amplitude, treated vs control eyes (Long Evans rat eyes; in vivo): no statistically significant difference
- ERG B-wave amplitude, treated vs control eyes (Long Evans rat eyes; in vivo): no statistically significant difference
- OCT retinal structure (Long Evans rat eyes; in vivo): did not demonstrate any qualitative structural changes
- clinical eye photos (inflammatory response, corneal opacity, fundus abnormalities, conjunctival redness) (Long Evans rat eyes; in vivo): no evidence of inflammatory response, corneal opacity, fundus abnormalities, or conjunctival redness
- cornea and lens clarity (Long Evans rat eyes; in vivo): remained clear
- overall retina morphology and blood vessels (Long Evans rat eyes; in vivo): remained unchanged
- retinal detachment, edema or inflammation (Long Evans rat eyes; in vivo): No retinal detachment, edema or inflammation was observed
- TUNEL+ DAPI+ cells (rat eyes): no TUNEL+ DAPI+ cells observed
- hematoxylin and eosin staining of the retina (rat eyes): no infiltration of inflammatory cells, fibrosis or morphological changes
- number of cleaved caspase-3+ DAPI+ cells, treatment vs control (rat eyes): no statistically significant change
- maximum solubility ([1]; PBS, pH 7.4): 10%
- rat behavior (activity levels, aggression, feeding pattern, weight gain) [6]: no obvious changes in rat behavior
- corneal penetration as compared to levodopa at a given concentration [7]: did not exhibit enhanced corneal penetration

Compound: CNCCc1ccc(OC(=O)C(C)C)c(OC(=O)C(C)C)c1 [ibopamine]
- patients who stopped using the drug due to follicular conjunctivitis or irritation [8]: 8 of 17
